pIC50: −log10 of the molar value.
How the values were obtained:
RAW264.7 = assay: Antiinflammatory activity in mouse RAW264.7 cells assessed as inhibition of LPS-induced NO production measured after 18 hrs by Griess assay; format: functional, cell-based; details: RAW264.7, 18 h
HeLa = assay: Cytotoxicity against human HeLa cells after 48 hrs by MTT assay; format: functional, cell-based
HT-29 = assay: Cytotoxicity against human HT-29 cells after 48 hrs by MTT assay; format: functional, cell-based; details: HT-29, 48 h
MDA-MB-231 = assay: Cytotoxicity against human MDA-MB-231 cells after 48 hrs by MTT assay; format: functional, cell-based; details: MDA-MB-231, 48 h
OVCAR = assay: Cytotoxicity against human OVCAR cells after 48 hrs by MTT assay; format: functional, cell-based
L02 = assay: Cytotoxicity against human LO2 cells after 48 hrs by MTT assay; format: cell-based; details: l02, 48 h
Hep 3B2 = assay: Cytotoxicity against human Hep3B cells after 48 hrs by MTT assay; format: functional, cell-based

| Compound | pIC50 (RAW264.7) | pIC50 (HeLa) | pIC50 (HT-29) | pIC50 (MDA-MB-231) | pIC50 (OVCAR) | Activity (L02) | pIC50 (Hep 3B2) |
| --- | --- | --- | --- | --- | --- | --- | --- |
| CC(C)C1=C2C[C@H](O)[C@H](C)[C@@H]3CCC(=O)/C3=C/[C@@]2(C)[C@@H](O)C1 | < 4.40 | 4.42 to 4.60 | 4.42 to 4.60 | 4.42 to 4.60 | 4.42 to 4.60 | Non-Toxic | 4.42 to 4.60 |
| COCC1=C2[C@@H](CC1)[C@@H](C)[C@@H](O)CC1=C(C(C)C)C(=O)C[C@]1(C)[C@H]2O | < 4.40 |  |  |  |  |  |  |
| COC[C@@]1(O)CC[C@H]2[C@@H](C)[C@@H](O)CC3=C(C(C)C)CC[C@]3(C)[C@H]3O[C@@]231 | < 4.40 | 4.42 to 4.60 | 4.42 to 4.60 | 4.42 to 4.60 | 4.42 to 4.60 | Non-Toxic | 4.42 to 4.60 |
| CC(C)C1=C2C[C@H](O)[C@H](C)C3=C(C(=O)CC3)[C@H](O)[C@@]2(C)CC1 | < 4.40 |  |  |  |  |  |  |

More lines, main results first:

| pIC50 (RAW264.7) | Compound | pIC50 (HeLa) | pIC50 (HT-29) | pIC50 (MDA-MB-231) | pIC50 (OVCAR) | Activity (L02) | pIC50 (Hep 3B2) |
| --- | --- | --- | --- | --- | --- | --- | --- |
| < 4.40 | COCC1=C2C[C@@]3(C)C(=O)C=C(C(C)C)[C@]34C[C@H](O)[C@H](C)[C@@]2(CC1)O4 |  |  |  |  |  |  |
| < 4.40 | CC(C)C1=C2C[C@@H]3O[C@@H]([C@H]4C(=O)CC[C@H]4[C@H]3C)[C@@]2(C)[C@@H](O)C1 | 4.42 to 4.60 | 4.42 to 4.60 | 4.42 to 4.60 | 4.42 to 4.60 | Non-Toxic | 4.42 to 4.60 |
| 4.61 | COCC1=C2[C@@H](CC1)[C@@H](C)[C@@H](O)CC1=C(C(C)C)CC[C@]1(C)[C@H]2O | 4.42 to 4.60 | 4.42 to 4.60 | 4.42 to 4.60 | 4.42 to 4.60 | Non-Toxic | 4.42 to 4.60 |

Source: ChEMBL document CHEMBL4622888, “Modified Fusicoccane-Type Diterpenoids from Alternaria brassicicola” (J Nat Prod, 2020)
